Reference: ChEMBL document CHEMBL1201862, “PubChem BioAssay data set” (2004)
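Five compound concentrations were applied to cells in 96-well plates for 48 hours; endpoints were derived by simple linear interpolation of the resulting dose-response curve. GI50 is the concentration that inhibits growth by half.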 Activity calls are given as the source filed them. Cut-off read from the data, not from the text of the source: active = GI50 up to about 1.1 µM and inactive = higher.

How the values were obtained:
Assay in all cases: DTP human tumour cell line panel, 48 h
HCT-15 = system: HCT-15
COLO 205 = system: COLO 205
UACC-257 = system: UACC-257
HL-60 = system: HL-60
HCT-116 = system: HCT-116
A549 = system: A549
SNB-75 = system: SNB-75
RXF 393 = system: RXF 393
OVCAR-5 = system: OVCAR-5
KM-20L2 = system: KM-20L2
SK-OV-3 = system: SK-OV-3
ACHN = system: ACHN
UACC-62 = system: UACC-62
Malme-3M = system: Malme-3M
NCI-H522 = system: NCI-H522
M14 = system: M14
RPMI-8226 = system: RPMI-8226

Structure (SMILES) | GI50 (HCT-15) [µM] | GI50 (COLO 205) | GI50 (UACC-257) | GI50 (HL-60) | GI50 (HCT-116) | GI50 (A549) | GI50 (SNB-75) | GI50 (RXF 393) | GI50 (OVCAR-5) | GI50 (KM-20L2) | GI50 (SK-OV-3) | GI50 (ACHN) | GI50 (UACC-62) | GI50 (Malme-3M) | GI50 (NCI-H522) | GI50 (M14) | GI50 (RPMI-8226)
NC(=O)NNC(=O)NC12CC3CC(CC(C3)C1)C2 | > 100 | > 100 µM (inactive) | > 100 µM (inactive) | > 100 µM (inactive) | > 100 µM (inactive) | > 100 µM (inactive) | > 100 µM (inactive) | > 100 µM (inactive) | > 100 µM (inactive) | > 100 µM (inactive) | > 100 µM (inactive) | > 100 µM (inactive) | > 100 µM (inactive) | > 100 µM (inactive) | > 100 µM (inactive) | > 100 µM (inactive) | –
COC(=O)C(=O)C(C(=O)C=C(C)C)C(=O)C(=O)Nc1ccc(C)cc1C (stereo unspecified) | > 100 | > 100 µM (inactive) | > 100 µM (inactive) | > 100 µM (inactive) | > 100 µM (inactive) | > 100 µM (inactive) | > 100 µM (inactive) | > 100 µM (inactive) | > 100 µM (inactive) | > 100 µM (inactive) | > 100 µM (inactive) | > 100 µM (inactive) | > 100 µM (inactive) | > 100 µM (inactive) | > 100 µM (inactive) | > 100 µM (inactive) | > 100 µM (inactive)
COC(=O)/C=C(\C(=O)OC)c1c2c3c(cc(OC)c(OC)c3c3ccccc13)CCN2C | 22.3 | 14.7 µM (inactive) | 30.5 µM (inactive) | 17.9 µM (inactive) | 37.4 µM (inactive) | 24.4 µM (inactive) | 66.8 µM (inactive) | 8.79 µM (inactive) | > 100 µM (inactive) | 12.6 µM (inactive) | 62.4 µM (inactive) | 40.6 µM (inactive) | 24.2 µM (inactive) | 33.7 µM (inactive) | 23.1 µM (inactive) | 78.7 µM (inactive) | 26.8 µM (inactive)
CC1CC[P+](c2ccccc2)(c2ccccc2)CC1 | > 100 | 18.7 µM (inactive) | 33.6 µM (inactive) | 24.5 µM (inactive) | > 100 µM (inactive) | > 100 µM (inactive) | 62.4 µM (inactive) | > 100 µM (inactive) | > 100 µM (inactive) | 89.1 µM (inactive) | > 100 µM (inactive) | > 100 µM (inactive) | 58.5 µM (inactive) | > 100 µM (inactive) | 40.5 µM (inactive) | 88.1 µM (inactive) | 21.2 µM (inactive)
COc1cc2c(oc(=O)c3c4oc([Si](C)(C)C)cc4cc(OC)c23)c2cccc(O)c12 | > 100 | > 100 µM (inactive) | > 100 µM (inactive) | > 100 µM (inactive) | > 100 µM (inactive) | > 100 µM (inactive) | 36.4 µM (inactive) | > 100 µM (inactive) | > 100 µM (inactive) | > 100 µM (inactive) | > 100 µM (inactive) | > 100 µM (inactive) | > 100 µM (inactive) | > 100 µM (inactive) | > 100 µM (inactive) | > 100 µM (inactive) | > 100 µM (inactive)
O=C1Cc2c([nH]c3ccccc23)-c2cc(Br)ccc2N1 | > 100 | > 100 µM (inactive) | > 100 µM (inactive) | > 100 µM (inactive) | > 100 µM (inactive) | > 100 µM (inactive) | > 100 µM (inactive) | > 100 µM (inactive) | > 100 µM (inactive) | > 100 µM (inactive) | > 100 µM (inactive) | > 100 µM (inactive) | – | > 100 µM (inactive) | > 100 µM (inactive) | > 100 µM (inactive) | > 100 µM (inactive)
COc1ccc2[nH]c3c(cnn4cnnc34)c2c1 | > 100 | > 100 µM (inactive) | > 100 µM (inactive) | > 100 µM (inactive) | – | > 100 µM (inactive) | > 100 µM (inactive) | > 100 µM (inactive) | > 100 µM (inactive) | > 100 µM (inactive) | > 100 µM (inactive) | > 100 µM (inactive) | > 100 µM (inactive) | > 100 µM (inactive) | > 100 µM (inactive) | > 100 µM (inactive) | > 100 µM (inactive)
